Non-standard residues stand in square brackets, D forms with d. No end group written: not given here. *: point of attachment. pT = C[C@@H](OP(=O)(O)O)[C@H](N)C(=O)O; Myristoyl = CCCCCCCCCCCCCC(=O)*
Key:
[1] = test system: Slack KNa channel; experiment: Surface biotinylation of Slack channel in cultured DRG neurons; type: cell-based, rat; conditions: 24 hrs after PDZ peptide incubation, vs scrambled peptide B
Method: (§1) Western Blot Analysis—Total proteins were collected from transfected CHO cells, spinal cord and DRG. Tissue was homogenized in RIPA buffer supplemented in protease inhibitor cocktail (Sigma). Immunoblotting was performed as previously described. Briefly, proteins were separated on 4-15% Mini-PROTEAN TGX Precast Gel (Bio-Rad) and transferred to a 0.45 μm nitrocellulose membrane (BioRad). Membranes were probed overnight at 4° C. with antibodies against Slack anti-mouse (1:500; NeuroMab), rabbit anti-β-Actin (1:500; Millipore), rabbit anti-Magi-1 (1:100; Abcam), mouse anti-Magi-1 (1:100; Novus Biochemical), mouse anti-NaV1.8 (1:200; NeuroMab), mouse anti-NaV1.7 (1:200; NeuroMab), mouse anti-Flag (1:500; Sigma) in 5% milk prepared in 1×Tris-buffered saline tween (TBST). On the following day, the membrane was washed three times for five minutes in 1×TBST before being incubated for 1 hour at room temperature in Anti-mouse or Anti-rabbit horseradish peroxidase conjugate (1:5000; Promega) and 0.1% BSA prepared in 1×PBS. The membrane was again washed 3 times for 5 minutes before being developed and imaged. Bands were visualized with enhanced chemiluminescence (Thermo Scientific) and quantified with Image J Software (NIH). Each experiment was repeated at least three times.
(§2) Surface Protein Biotinylation—Plasma membrane protein expression was detected using a protein biotinylation assay. […]

[2] = test system: DRG neurons; experiment: Current-clamp action potential firing in cultured DRG neurons; type: cell-based, rat
Method: (§3) Primary DRG neuronal cultures—Timed-pregnant Sprague-Dawley rats (Harlan, Indianapolis, Ind.) were used for culturing neurons. On the day of the dissection, rats were euthanized by CO2 asphyxiation and E15 embryos were extracted. DRG neurons were dissected from the embryos and enzymatically digested with Trypsin (2.5 mg/ml) at 37° C. for 45 min, followed by dissociation and plating. DRG neurons were plated onto poly-D-lysine (Sigma; 100 μg/ml) and laminin (Invitrogen; 3 μg/ml) coated coverslips. Neurons were maintained at 37° C. in a 7% CO2 humidified incubator in serum-free medium, comprised of the trophic factors N2 (Gemini Bio products; 1%), I-Glutamine (Invitrogen; 200 sg/ml), and Nerve Growth Factor (NGF) (Harlan; 100 ng/ml; essential for embryonic neuronal survival) in 50% DMEM and 50% F-12. The reliance of embryonic DRG neurons on NGF selects for the small-diameter population that is thought to underlie nociception and thermoception. Two successive days after DRG dissection, DRG neurons were cultured in C2 media containing the anti-mitotic agent cytosine β-d-arabinofuranoside hydrochloride (Sigma; 3 μM). This was followed by two days of recovery were neurons received regular serum free media before neurons were used for experiments. All subsequent experiments using embryonic cultures were performed on days 5-10 of neuronal culture.
Electrophysiology—All data was acquired using the Axopatch 200B amplifier (Molecular Devices,) and Multiclamp-700B (Molecular Devices, Sunnyvale, Calif.), digitized and filtered at 5 kHz. Data acquisition was monitored and controlled using pClamp 10 (Molecular Devices). Whole-cell patch-clamp recordings were performed on cultured DRG neurons, and CHO cells transiently transfected with WT or mutated Slack with Magi-1. Glass electrodes were pulled using a vertical pipette puller (Narishige International USA, Amityville, NY) and fire polished to be of 5-8 MΩ resistance. Pipettes were filled with solution containing (in mM) 124 K-gluconate, 2 MgCl2, 13.2 NaCl, 1 EGTA, 10 HEPES, 4 Mg-ATP, and 0.3 Na-GTP at pH 7.2 for neuronal recordings, and with 32.5 mM KCl, 97.5 mM potassium gluconate, 5 mM EGTA and 10 mM HEPES (pH 7.2) for CHO cell Slack and Slick recordings. […] In voltage-clamp mode, macroscopic currents were recorded at voltages ranging from −120 to +120. […] The cell capacitance for CHO cells ranged from 10-15 pF and for cultured DRG neurons 20-25 pF recorded under these conditions. […] Firing frequency of individual neurons was assessed by measurement of repetitive discharge upon injecting of a supra-threshold stimulus of 400 pA for 1000 ms. […] For TTX-resistant INa, DRG neurons were recorded in a bath solution containing 250 nM TTX. DRG neurons were recorded at voltages ranging from −60 to +60 mV. […]

[3] = test system: INa in DRG neurons; experiment: Whole-cell voltage-clamp recording of inward sodium current (INa); type: cell-based, rat; conditions: for INa (total / peak): 10 μM peptide, 24 hrs
Method: as §3, with “All subsequent experiments using embryonic cultures were performed on days 5-10 of neuronal culture.” left out
Electrophysiology—All data was acquired using the Axopatch 200B amplifier (Molecular Devices,) and Multiclamp-700B (Molecular Devices, Sunnyvale, Calif.), digitized and filtered at 5 kHz. Data acquisition was monitored and controlled using pClamp 10 (Molecular Devices). […] In voltage-clamp mode, macroscopic currents were recorded at voltages ranging from −120 to +120. […] The cell capacitance for CHO cells ranged from 10-15 pF and for cultured DRG neurons 20-25 pF recorded under these conditions. […] Firing frequency of individual neurons was assessed by measurement of repetitive discharge upon injecting of a supra-threshold stimulus of 400 pA for 1000 ms. […] For TTX-resistant INa, DRG neurons were recorded in a bath solution containing 250 nM TTX. DRG neurons were recorded at voltages ranging from −60 to +60 mV. […]

[4] = Formalin test of acute inflammatory pain; type: in vivo, mice; conditions: single i.pl. injection 100 μM, 20 μl, 24 hrs before 5% formalin; vs scrambled peptide
Description: In vivo transfection with jetPEI®/Magi-1 shRNA plasmid DNA polyplexes—The spinal nerve injection protocol was adopted from and optimized for spinal nerve injection in mice. Three days after baseline thermal behavior was established, mice were anesthetized using isoflurane (induction: 4% and maintenance: 2%), and placed in a prone position. A 3-cm posterior longitudinal skin incision was made at the lumbar segment of the spine. The ipsilateral paraspinal muscles were carefully separated, using a pair of sterile toothpicks, from their attachments at the L4˜S1 levels of the vertebral column. 1.5 μl of PEI/shRNA plasmid DNA polyplexes at an N/P ratio of 6 were injected directly in the spinal nerve of the right hind paw slowly using a syringe connected to a 26-gauge needle (Hamilton 80030, Hamilton, Reno, NV). Magi-1 shRNAs and control shRNA were purchased from Santa Cruz Biotechnology (Santa Cruz, CA, USA) and were identical to the siRNA sequences described above. After injection, the needle was held at the spinal nerve for 1 min to prevent leakage. […]
Formalin test—Mice were habituated in the behavior room for 15 minutes, then 30 minutes in the formalin chamber before formalin injection. […] The total time spent lifting, the total number of licks, and the number of flinches were recorded in 5 minute intervals for 60 minutes. […]

[5] = test system: NaV1.8; experiment: Surface biotinylation / Western blot of NaV1.8 in cultured DRG neurons; type: cell-based, rat; conditions: 10 μM peptide, 24 hrs
Method: as §1
Surface Protein Biotinylation—Plasma membrane protein expression was detected using a protein biotinylation assay. Briefly, CHO cells or DRG neurons in six-well plates were used at 48 h after transient transfection of plasmid constructs or Magi-1 targeting siRNA respectively. For peptide incubation, neurons were incubated for 24 hrs. 160 μl of 10 mM Sulfo-NHS-SS-Biotin (Thermo Scientific) was added to each well and incubated at room temperature for 45 mins. The biotinylation reaction was terminated using 10 mM glycine (Quenching solution). Cells were harvested, washed in TBS and lysed on ice for 30 minutes in a lysis buffer/protease inhibitor cocktail. Lysates were collected and incubated with 500 uL of NeutrAvidin Agarose for 60 mins at room temperature with rotation. Following incubation, the column underwent centrifugation to collect the unbiotinylated protein. To elute the biotinylated proteins, sodium dodecyl sulfate (SDS) and dithiothreitol (DDT) were added to column membrane and incubated with rotation for 1 hour at room temperature. Biotinylated and unbiotinylated samples were probed for Slack or NaV1.8 and Actin protein by Western blot, as described above.

[6] = test system: NaV1.7; experiment: Surface biotinylation of NaV1.7 in cultured DRG neurons; type: cell-based, rat; conditions: peptide treatment 24 hrs
Method: as §1, §2

Substance: NPETRDETQL [PDZ peptide]
- Slack surface expression [1]: decreased
- neurons exhibiting repetitive firing ([2]; PDZ peptide treated, suprathreshold stimulation 400 pA, 1000 ms): 11/21

Substance: myristoyl-QPNTRLDETE (Myristoyl-QPNTRLDETE) [Scrambled peptide B, reference compound]
- neurons firing one action potential followed by firing accommodation ([2]; suprathreshold stimulation 400 pA, 1000 ms): 23/23

Substance: myristoyl-SATSFPPSYDSVTRG (Myristoyl-SATSFPPSYDSVTRG) [PY peptide]
- INa (total / peak) [3]: almost complete loss
- decrease in INa density ([3]; PY peptide incubation, 6 hours): 50%
- Phase II acute inflammatory pain (formalin) [4]: significantly reduced
- neurons with AP firing almost completely abolished ([2]; 10 μM peptide, 24 hrs): 10 of 11
- NaV1.8 channels at the plasma membrane (surface expression) [5]: substantial decrease
- total NaV1.8 protein [5]: substantial decrease
- surface (biotinylated) NaV1.7 membrane expression [6]: unaltered

Substance: myristoyl-SATSFPPSYDSV[pT]RG (Myristoyl-SATSFPPSYDSV[pT]RG) [phospho-PY peptide]
- INa (total / peak) [3]: strongly increased
- Phase II acute inflammatory pain (formalin) [4]: increase
- neurons with repetitive AP firing ([2]; 10 μM peptide, 24 hrs, suprathreshold stimulation 400 pA, 1000 ms): 7 of 12
- NaV1.8 channels at the plasma membrane (surface expression) [5]: significant increase
- total NaV1.8 protein [5]: a statistically significant increase in input levels of NaV1.8 protein over 24 hours was not observed
- surface (biotinylated) NaV1.7 membrane expression [6]: unaltered
